From patent US12064516B2, “Pharmaceutical formulations and uses thereof” (Aldeyra Therapeutics, Inc., priority 2020, dated 2024)
Read-outs that look alike come from different tables or passages of the source.

What was measured:
[1] = Pharmacokinetic comparison of ADX-102 (reproxalap) and compound I-1 in rats; format: in vivo, Sprague-Dawley rats; conditions: Sprague-Dawley, in vivo, SD Rat
[2] = Solubility of I-1 drug substance; format: physicochemical
Description: Spray-drying was selected for formulation of this compound. By co-precipitating the compound with a polymer in a stable amorphous solid dispersion, spray-drying improved the dissolution rates and enhanced the bioavailability. […] This made I-1 an appropriate candidate for the application of formulation through spray drying dispersion (SDD).

[3] = Phase 1 clinical trial, safety and tolerability (adverse events, labs, vitals, QTcF); conditions: for subjects with TEAEs, %: subjects who received I-1
Description: (§1) This Phase 1 trial was a first-in-human, randomized, double-blind, placebo-controlled trial with a 3:1 randomization of I-1 and placebo. The trial was comprised of single ascending dose (SAD) and multiple ascending dose (MAD) protocols. MAD drug exposure was 10 days of twice-per-day (BID) administration.
(§2) A total of 54 healthy volunteers were randomized across two cohorts of varying doses: 41 subjects received I-1 and 13 subjects received placebo.
(§3) Thirty-one (31) subjects were randomized to varying doses: 23 subjects received I-1 and 8 subjects received placebo.

[4] = human, in vivo, 10 days
Description: as §1, §2, §3

[5] = Phase 1 clinical trial, multiple ascending dose (MAD) pharmacokinetics; format: in vivo, human; conditions: for Cmax / half-life / AUC(0-t): human, in vivo; for AUC(0-t): read-out: Mean AUC0-12
Description: PK data are presented below.

In the case of CC(C)(O)c1nc2ccccc2cc1N [I-1], the clearance ([1]; intravenous data using captisol formulation) is reported as 65.8 mL/min/kg, the half-life ([1]; oral gavage 50 mg/kg, 0.5% MC) is reported as 2.96 h and the “solubility in aqueous media” value [2] is reported as “poor solubility in aqueous media”. The “solubility in non-polar solvents” value [2] was “increased solubility in non-polar solvents”, the “intensity and relatedness of TEAEs” value ([3]; MAD) was “mild and deemed not to be related to the study drug” and the “subjects with TEAEs, %” value ([3]; MAD) was 17.4%. The “Pruritis, % of subjects” value ([3]; MAD, I-1 50 mg BID) was “(16.7%)”, the “Pruritis, N subjects” value ([3]; MAD, I-1 50 mg BID) was 1 and the “Rhinitis, N subjects” value ([3]; MAD, I-1 50 mg BID) was 0. For the same compound, the “URTI, N subjects” value ([3]; MAD, I-1 50 mg BID) was 0, the “Headache, N subjects” value ([3]; MAD, I-1 150 mg BID) was 0 and the “Ligament sprain, N subjects” value ([3]; MAD, I-1 150 mg BID) was 0. For the same compound, the “Muscle spasms, N subjects” value ([3]; MAD, I-1 150 mg BID) was 0, the “Nasal congestion, % of subjects” value ([3]; MAD, I-1 150 mg BID) was “(16.7%)” and the “Nasal congestion, N subjects” value ([3]; MAD, I-1 150 mg BID) was 1. The “Pruritis, N subjects” value ([3]; MAD, I-1 150 mg BID) was 0, the “Rhinitis, N subjects” value ([3]; MAD, I-1 150 mg BID) was 0 and the “URTI, N subjects” value ([3]; MAD, I-1 150 mg BID) was 0. The “Headache, N subjects” value ([3]; MAD, I-1 350 mg BID) was 0, the “Ligament sprain, N subjects” value ([3]; MAD, I-1 350 mg BID) was 0 and the “Muscle spasms, N subjects” value ([3]; MAD, I-1 350 mg BID) was 0. For the same compound, the “Nasal congestion, N subjects” value ([3]; MAD, I-1 350 mg BID) was 0, the “Pruritis, N subjects” value ([3]; MAD, I-1 350 mg BID) was 0 and the “URTI, % of subjects” value ([3]; MAD, I-1 350 mg BID) was “(20.0%)”. For the same compound, the “URTI, N subjects” value ([3]; MAD, I-1 350 mg BID) was 1, the “Headache, N subjects” value ([3]; MAD, I-1 600 mg BID) was 0 and the “Ligament sprain, N subjects” value ([3]; MAD, I-1 600 mg BID) was 0. For the same compound, the “Muscle spasms, N subjects” value ([3]; MAD, I-1 600 mg BID) was 0, the “Nasal congestion, N subjects” value ([3]; MAD, I-1 600 mg BID) was 0 and the “Pruritis, N subjects” value ([3]; MAD, I-1 600 mg BID) was 0. For the same compound, the “Rhinitis, % of subjects” value ([3]; MAD, I-1 600 mg BID) was “(16.7%)”, the “Rhinitis, N subjects” value ([3]; MAD, I-1 600 mg BID) was 1 and the “URTI, N subjects” value ([3]; MAD, I-1 600 mg BID) was 0. For the same compound, the “Headache, N subjects” value ([3]; MAD, I-1 Total) was 0, the “Ligament sprain, N subjects” value ([3]; MAD, I-1 Total) was 0 and the “Muscle spasms, N subjects” value ([3]; MAD, I-1 Total) was 0. For the same compound, the “Nasal congestion, % of subjects” value ([3]; MAD, I-1 Total) was “(4.3%)”, the “Nasal congestion, N subjects” value ([3]; MAD, I-1 Total) was 1 and the “Pruritis, % of subjects” value ([3]; MAD, I-1 Total) was “(4.3%)”. The “Pruritis, N subjects” value ([3]; MAD, I-1 Total) was 1, the “Rhinitis, % of subjects” value ([3]; MAD, I-1 Total) was “(4.3%)” and the “Rhinitis, N subjects” value ([3]; MAD, I-1 Total) was 1. The “URTI, % of subjects” value ([3]; MAD, I-1 Total) was “(4.3%)”, the “URTI, N subjects” value ([3]; MAD, I-1 Total) was 1 and the QTcF prolongation ([3]; Phase 1) was “did not lead to QTcF prolongation”. The “changes in heart rate, blood pressure, respiratory rate, pulse oximetry, temperature” value ([3]; Phase 1) was “No clinically meaningful changes”, the “changes in hepatic or renal analytes (ALT, AST, ALP, amylase, GGT, bilirubin, creatinine kinase, creatinine)” value ([3]; Phase 1) was “No clinically meaningful changes” and the “changes in serum glucose” value ([3]; Phase 1) was “No changes”. The hematological changes ([3]; Phase 1) was “No clinically significant hematological changes”, the “subjects with QTcF ≥500 msec or a change of ≥60 msec from baseline” value ([3]; Phase 1) was “no subjects” and the “subjects with QTcF change of >30 msec from baseline” value ([3]; Phase 1, three in SAD, two in MAD) was “Five”. The “interruptions or discontinuations of study drug administration” value ([3]; Phase 1 SAD and MAD) was “no interruptions or discontinuations”, the “overall safety and tolerability” value ([3]; Phase 1 SAD and MAD) was “safe and tolerable” and the TEAE description ([3]; SAD, one subject in 100 mg dose cohort) was “syncope lasting less than a minute, moderate in intensity and deemed to be related to the study drug”. The TEAE description ([3]; SAD, one subject, single dose of 700 mg) was “sinus congestion, mild in intensity and deemed not to be related to I-1”, the “subjects with TEAEs, %” value ([3]; SAD) was 3.7% and the “subjects with treatment emergent adverse events (TEAEs), %” value ([3]; all subjects receiving I-1 (SAD and MAD)) was 9.4%. The “Influenza like illness, N subjects” value [4] was 0, the “accumulation of the drug” value ([5]; across all cohorts) was “Little to no accumulation” and the “relation of Cmax and AUC to dose” value ([5]; as dose increased, Phase 1 cohorts) was “linear correlation”. It also gave a Cmax ([5]; oral, 600 mg, top dose 600 mg BID, read-out: Cmax expressed as molar concentration) of roughly 8.5 µM, a half-life ([5]; oral, multiple day exposures, across cohorts and days, read-out: half-life (t1/2), range of mean values) of 3.49 to 6.83 h and an AUC(0-t) ([5]; po, 50 mg, oral 50 mg BID, Day 1) of roughly 148 ng·h/mL. For the same compound, the Cmax ([5]; po, 50 mg, oral 50 mg BID, Day 1, read-out: Mean Cmax) was roughly 70.2 ng/mL, the half-life ([5]; po, 50 mg, oral 50 mg BID, Day 1, read-out: Mean t1/2 (converted)) was roughly 3.49 h and the AUC(0-t) ([5]; po, 50 mg, oral 50 mg BID, Day 10) was 252 ng·h/mL. It also gave a Cmax ([5]; po, 50 mg, oral 50 mg BID, Day 10, read-out: Mean Cmax) of 85.9 ng/mL, a half-life ([5]; po, 50 mg, oral 50 mg BID, Day 10, read-out: Mean t1/2 (converted)) of 5.25 h and an AUC(0-t) ([5]; po, 150 mg, oral 150 mg BID, Day 1) of roughly 809 ng·h/mL. The Cmax ([5]; po, 150 mg, oral 150 mg BID, Day 1, read-out: Mean Cmax) was roughly 343 ng/mL, the half-life ([5]; po, 150 mg, oral 150 mg BID, Day 1, read-out: Mean t1/2 (converted)) was roughly 4.86 h and the AUC(0-t) ([5]; po, 150 mg, oral 150 mg BID, Day 10) was 1170 ng·h/mL. It also gave a Cmax ([5]; po, 150 mg, oral 150 mg BID, Day 10, read-out: Mean Cmax) of 320 ng/mL, a half-life ([5]; po, 150 mg, oral 150 mg BID, Day 10, read-out: Mean t1/2 (converted)) of 6.34 h and an AUC(0-t) ([5]; po, 350 mg, oral 350 mg BID, Day 1) of roughly 2950 ng·h/mL. For the same compound, the Cmax ([5]; po, 350 mg, oral 350 mg BID, Day 1, read-out: Mean Cmax) was roughly 1190 ng/mL, the half-life ([5]; po, 350 mg, oral 350 mg BID, Day 1, read-out: Mean t1/2 (converted)) was roughly 5.67 h and the AUC(0-t) ([5]; po, 350 mg, oral 350 mg BID, Day 10) was 4340 ng·h/mL. For the same compound, the Cmax ([5]; po, 350 mg, oral 350 mg BID, Day 10, read-out: Mean Cmax) was 1230 ng/mL, the half-life ([5]; po, 350 mg, oral 350 mg BID, Day 10, read-out: Mean t1/2 (converted)) was 6.83 h and the AUC(0-t) ([5]; po, 600 mg, oral 600 mg BID, Day 1) was roughly 6450 ng·h/mL. It also gave a Cmax ([5]; po, 600 mg, oral 600 mg BID, Day 1, read-out: Mean Cmax) of roughly 2230 ng/mL, a half-life ([5]; po, 600 mg, oral 600 mg BID, Day 1, read-out: Mean t1/2 (converted)) of roughly 4.15 h and an AUC(0-t) ([5]; po, 600 mg, oral 600 mg BID, Day 10) of 7220 ng·h/mL. For the same compound, the Cmax ([5]; po, 600 mg, oral 600 mg BID, Day 10, read-out: Mean Cmax) was 1700 ng/mL, the half-life ([5]; po, 600 mg, oral 600 mg BID, Day 10, read-out: Mean t1/2 (converted)) was 4.66 h and the “Mean AUC0-12” value ([5]; oral 50 mg BID, Day 1) was 148 ng·h/mL. The “Mean AUC0-12” value ([5]; oral 50 mg BID, Day 10) was roughly 252 ng·h/mL, the “Mean AUC0-12” value ([5]; oral 150 mg BID, Day 1) was 809 ng·h/mL and the “Mean AUC0-12” value ([5]; oral 150 mg BID, Day 10) was roughly 1170 ng·h/mL. For the same compound, the “Mean AUC0-12” value ([5]; oral 350 mg BID, Day 1) was 2950 ng·h/mL, the “Mean AUC0-12” value ([5]; oral 350 mg BID, Day 10) was roughly 4340 ng·h/mL and the “Mean AUC0-12” value ([5]; oral 600 mg BID, Day 1) was 6450 ng·h/mL. For the same compound, the “Mean AUC0-12” value ([5]; oral 600 mg BID, Day 10) was roughly 7220 ng·h/mL.
